From patent US20120189603A1, “STORAGE-STABLE, SYNERGISTIC MICROBICIDAL CONCENTRATES CONTAINING AN ISOTHIAZOLONE, AN AMINE AND AN OXIDIZING AGENT” (L"AIR LIQUIDE, SOCIETE ANONYME POUR L'ETUDE ET L' …, priority 2009, published 2012)

Key:
Assay in all cases: Germ-count reduction test, sterile town water, pH adjusted to 8.2
Set-up in all cases: key: −: growth-free; +: slight growth; ++: moderate growth; +++: considerable growth; ++++: massive growth; L: lawn-like growth
Conditions in all cases: +0.01% 2
E. coli = type: cell-based
A. niger = type: cell-based, Aspergillus niger
Experimental: (§1) The pH was adjusted to 8.2 with HCl.
A 7-14-day-old Aspergillus niger culture on Sabouraud agar is elutriated with 5 ml of NaCl, filtered through a glass filter containing glass wool and topped up to 200 ml. This suspension has a titre of ca. 10^7 CFU/ml.
(§2) A dilution series of four concentrations is prepared from the active ingredient to be tested and poured into 10 ml sterile tubes. One dilution series is required per test germ. Each tube is inoculated with 0.1 ml of the individual germ suspensions.
(§3) […] The bacteria are streaked on CSA and incubated for 48 hours at 37° C. (Pseudomonas aeruginosa and Staphylococcus aureus) or 25° C. (Pseudomonas fluorescens/Pseudomonas putida). The fungi are streaked on Sabouraud agar and incubated for 48 hours at 37° C. (Candida albicans) and 25° C. (Aspergillus niger).

P. aeruginosa = type: cell-based, Pseudomonas aeruginosa
Experimental: as §1
(§4) 24-Hour CSL cultures are prepared from 24-hour CS slant agar cultures of Staphylococcus aureus/Pseudomonas aeruginosa. Incubation takes place at 37° C.
(§5) The titre of the bacteria suspensions is ca. 10^9 CFU/ml.
as §2, §3

P. funiculosum = type: cell-based
C. albicans = type: cell-based, Candida albicans
Experimental: as §1
A 4-day-old Candida albicans culture (CSA+grape sugar) is elutriated with 5 ml of physiological sodium chloride solution and adjusted in accordance with a barium sulphate standard (see DVG Guideline). The titre of the Candida albicans suspension is 10^8 CFU/ml.
as §2, §3

S. aureus = type: cell-based, Staphylococcus aureus
Experimental: as §1, §4, §5, §2, §3

## CCCCCCCCCCCCN(CCCN)CCCN [compound 2, bis(aminopropyl)dodecylamine]
E. coli; 1 h
  growth: +
E. coli; 3 h
  growth: −
E. coli; 6 h
  growth: −
E. coli; 24 h
  growth: −
A. niger; 1 h
  growth: −
A. niger; 3 h
  growth: −
A. niger; 6 h
  growth: −
A. niger; 24 h
  growth: −
P. aeruginosa; 1 h
  growth: +
P. aeruginosa; 3 h
  growth: +
P. aeruginosa; 6 h
  growth: −
P. aeruginosa; 24 h
  growth: −
P. funiculosum; 1 h
  growth: −
P. funiculosum; 3 h
  growth: −
P. funiculosum; 6 h
  growth: −
P. funiculosum; 24 h
  growth: −
C. albicans; 1 h
  growth: −
C. albicans; 3 h
  growth: −
C. albicans; 6 h
  growth: −
C. albicans; 24 h
  growth: −
S. aureus; 1 h
  growth: −
S. aureus; 3 h
  growth: −
S. aureus; 6 h
  growth: −
S. aureus; 24 h
  growth: −
